Target: T1, PLA2 (phospholipase A2) from rat platelets (Rattus norvegicus, UniProt P14423)
T1 construct: from tissue; host or cells: rat platelets
T1 sequence (P14423 22-146): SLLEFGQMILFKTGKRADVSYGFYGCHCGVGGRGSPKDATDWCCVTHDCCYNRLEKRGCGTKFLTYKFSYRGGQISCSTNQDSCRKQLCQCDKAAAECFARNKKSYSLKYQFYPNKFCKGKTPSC
Assay: Phospholipase A2 inhibitory activity (release of free fatty acid from 14C-labelled phosphatidylethanolamine)
Type: biochemical
Conditions: rat platelet PLA2; Tris-buffer 0.1M, pH 7.4; CaCl2 3 mM; 37° C., 20 minutes
Protocol: The compounds of the present invention were tested for their Phospholipase A2 inhibitory activity by the following procedure.
1-Palmitoyl-2-[1-^14 C]-linoleoyl L-3-Phosphatidylethanolamine (Amersham, Inc., 59 mCi/mmol) were diluted with L-α-phosphatidylethanolamine (Sigma, Co., from […]) [2,000 dpm/nmol], and the dilution was sonicated. The resultant dilution was used as a substrate. The PLA2 (phospholipase A2) which was used in the test was from rat platelets. The PLA2 and the substrate preparation were added to a solution of CaCl2 (3 mM)in Tris-buffer (0.1M, pH 7.4), and the mixture was allowed to react at 37° C. for 20 minutes. Then, the reaction was terminated by adding 1.25 ml of Dole's reagent to the reaction mixture and stirring immediately the resultant mixture. To the mixture was added 0.5 ml of distilled water and 0.8 ml of n-heptane, and the mixture was stirred, centrifuged, and the resulting supernatant was taken into another tube. To this supernatant were added additional 0.8 ml of n-heptane and silica gel, and the mixture was stirred, centrifuged, and then the supernatant was taken into vials. Toluene cocktails were added to the vials. The amount of free fatty acid released from PLA2 (DPM value) was determined using liquid scintillation counter.
Inhibitory activity (%) was estimated by the formula: [(DPM value at the addition of the inhibitor-DPM value without PLA2)/(DPM value with only PLA2 -DPM value without PLA2)]×100.

Compound	IC50 [µM]
COc1c(C)c(OC(=O)c2c(C)c(C)c(OC(=O)c3c(C)c(CNCC(=O)OCc4ccccc4)c(O)c(C)c3O)c(C)c2OC)c(C)c(C)c1C(=O)O [Compound 1a, 4-[4'-(4"-Carboxy-3"-methoxy-2",5",6"-trimethylphenoxycarbony)-3'-methoxy-2',5',6'-trimethylphenoxycarbonyl]-2,5-dimethyl-6-benzyloxyglycylmethylresorcinol]	0.026
CCOC(=O)CNCc1c(C)c(C(=O)Oc2c(C)c(C)c(C(=O)Oc3c(C)c(C)c(C(=O)O)c(OC)c3C)c(OC)c2C)c(O)c(C)c1O [Compound 1b]	0.17
COc1ccc(CCOCc2c(C)c(C(=O)Oc3c(C)c(C)c(C(=O)Oc4c(C)c(C)c(C(=O)O)c(OC)c4C)c(OC)c3C)c(O)c(C)c2O)cc1 [Compound 1c]	0.16
CCCCOCc1c(C)c(C(=O)Oc2c(C)c(C)c(C(=O)Oc3c(C)c(C)c(C(=O)O)c(OC)c3C)c(OC)c2C)c(O)c(C)c1O [Compound 1d]	0.12
COc1c(C)c(OC(=O)c2c(C)c(C)c(OC(=O)c3c(C)c(CNCCCCC(NC(=O)OCc4ccccc4)C(N)=O)c(O)c(C)c3O)c(C)c2OC)c(C)c(C)c1C(=O)O (stereo not drawn) [Compound 1e]	1.1
COc1c(C)c(OC(=O)c2c(C)c(C)c(OC(=O)c3c(C)c(CO)c(O)c(C)c3O)c(C)c2OC)c(C)c(C)c1C(=O)O [Compound 1f]	0.38
COCc1c(C)c(C(=O)Oc2c(C)c(C)c(C(=O)Oc3c(C)c(C)c(C(=O)O)c(OC)c3C)c(OC)c2C)c(O)c(C)c1O [Compound 1g]	0.34
COCc1c(C)c(C(=O)Oc2c(C)c(C)c(C(=O)O)c(OC)c2C)c(OC)c(C)c1O [Compound 1i]	3.9
COc1c(C)c(OC(=O)c2c(C)c(C)c(OC(=O)c3c(C)c(CN[C@H](C)c4ccccc4)c(O)c(C)c3O)c(C)c2OC)c(C)c(C)c1C(=O)O [Compound 6b, 4-[4'-[5"-(Sec-phenethylaminomethyl)-2",4"-dihydroxy-3",6"-dimethylphenylcarboxy]-2'-methoxy-3',5',6'-trimethyl]phenylcarboxy-2-methoxy-3,5,6-trimethyl benzoic acid]	0.3

Reference: patent publication US5473096A, “Substituted benzoate derivatives” (Shionogi & Co., Ltd., priority 1992, dated 1995)
